Target: T1, CIC-1 channels (Rattus norvegicus, UniProt P35524)
T1 sequence (P35524 1-994): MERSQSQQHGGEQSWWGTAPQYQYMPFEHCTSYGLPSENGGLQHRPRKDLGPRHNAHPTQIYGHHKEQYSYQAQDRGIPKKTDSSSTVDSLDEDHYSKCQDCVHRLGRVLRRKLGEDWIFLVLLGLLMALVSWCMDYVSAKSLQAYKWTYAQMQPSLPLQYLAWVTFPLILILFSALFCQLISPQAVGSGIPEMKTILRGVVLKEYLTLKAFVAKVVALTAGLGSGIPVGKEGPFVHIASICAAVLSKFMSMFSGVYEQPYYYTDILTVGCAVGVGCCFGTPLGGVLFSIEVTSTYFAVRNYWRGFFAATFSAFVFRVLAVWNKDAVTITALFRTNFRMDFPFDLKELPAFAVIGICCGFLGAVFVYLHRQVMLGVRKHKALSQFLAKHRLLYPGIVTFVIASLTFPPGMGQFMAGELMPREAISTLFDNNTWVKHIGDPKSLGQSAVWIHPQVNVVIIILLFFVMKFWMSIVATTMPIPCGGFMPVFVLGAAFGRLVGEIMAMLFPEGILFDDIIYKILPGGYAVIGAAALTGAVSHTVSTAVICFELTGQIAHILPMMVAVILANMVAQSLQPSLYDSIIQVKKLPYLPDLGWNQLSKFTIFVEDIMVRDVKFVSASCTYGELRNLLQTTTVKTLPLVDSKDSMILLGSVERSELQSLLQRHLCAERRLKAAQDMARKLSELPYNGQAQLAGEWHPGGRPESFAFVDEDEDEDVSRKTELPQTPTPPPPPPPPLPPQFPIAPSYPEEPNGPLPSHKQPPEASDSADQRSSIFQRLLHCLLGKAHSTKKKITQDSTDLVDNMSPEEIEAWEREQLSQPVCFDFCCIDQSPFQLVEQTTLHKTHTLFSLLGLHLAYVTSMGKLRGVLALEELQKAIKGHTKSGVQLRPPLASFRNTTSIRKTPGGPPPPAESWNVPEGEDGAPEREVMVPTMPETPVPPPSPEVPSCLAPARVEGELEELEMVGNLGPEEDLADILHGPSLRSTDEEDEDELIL
Experiment: Electrophysiological measurement of compound inhibition of CIC-1 (Gm) in rat soleus muscle fibres: EC50 (Table 7)

**Q.** For `O=C(O)COc1ccc(Br)cc1-c1ccon1` [Compound A-64, 2-[4-bromo-2-(1,2-oxazol-3-yl)phenoxy]acetic acid], which EC50 is on record?
**A.** 7.4 µM

**Q.** `C[C@H](Oc1cc(F)c(Br)cc1-c1ccon1)C(=O)O` [Compound A-44, (2S)-2-[4-bromo-5-fluoro-2-(1,2-oxazol-3-yl)phenoxy]propanoic acid] was tested. Which EC50 did it give?
**A.** 2.9 µM

**Q.** For `O=C(O)[C@H](CF)Oc1ccc(Br)cc1-c1ccon1` [Compound A-31, (2R)-2-[4-bromo-2-(1,2-oxazol-3-yl)phenoxy]-3-fluoropropanoic acid], which EC50 is on record?
**A.** 3.3 µM

**Q.** `C[C@H](Oc1ccc(Br)cc1-c1csnn1)C(=O)O` [Compound A-59, (2S)-2-[4-bromo-2-(1,2,3-thiadiazol-4-yl)phenoxy]propanoic acid] was tested. Which EC50 did it give?
**A.** 5.6 µM

**Q.** With `C[C@H](Oc1ccc(Cl)cc1-c1ccno1)C(=O)O` [Compound A-26, (2S)-2-[4-chloro-2-(1,2-oxazol-5-yl)phenoxy]propanoic acid] as the molecule, how does the EC50 read?
**A.** 3.6 µM

Source: US20260007639A1, “COMPOUNDS FOR THE TREATMENT OF NEUROMUSCULAR DISORDERS” (NMD PHARMA A/S, priority 2017, published 2026)
